We go through 1 molecule from paper PMC9122626 (2020).

The test system of this assay is human telomeric G4 DNA, dAGGG(TTAGGG)3 (DNA, G4) AGGGTTAGGGTTAGGGTTAGGG
Kind of assay: CD melting (295 nm). Particulars: Na+ 100 mM; peptide concentration not given.

The structures appear in SMILES notation.

Take `N[C@@H](Cc1ccc(O)cc1)C(=O)N[C@@H](CCC(=O)N[C@@H](CCC(=O)O)C(=O)O)C(=O)N[C@@H](CCC(=O)O)C(=O)O` (racemic): the ΔTm was ~ 3 °C.
